Measurements published in patent US20120197004A1, “NOVEL ANTI-MICROBIAL PEPTIDOMIMETIC COMPOUNDS AND METHODS TO CALCULATE ANTI-MICROBIAL ACTIVITY” (priority 2006, published 2012).
Values after ≈ are worked out from the molar mass of the structure shown. Like-named read-outs stand apart in the source and are kept apart here. Where a SMILES comes first, the peptide text is derived from it. [ ]: non-standard residue; d: D form. ξ: configuration not given here. Oic = O=C(O)[C@@H]1C[C@@H]2CCCC[C@@H]2N1; Tic = O=C(O)[C@@H]1Cc2ccccc2CN1; ξTic = O=C(O)C1Cc2ccccc2CN1; ξOic = O=C(O)C1CC2CCCCC2N1; GABA = NCCCC(=O)O

How the values were obtained:
[1] = tested on: red blood cells; conditions: 100 μM
[2] = in vitro; conditions: rat, microsomes, pH 7.4
[3] = in vitro; conditions: human, microsomes, pH 7.4
[4] = in vitro; conditions: dog, microsomes, pH 7.4
[5] = tested on: Mycobacterium ranae (ATCC 110); conditions: ATCC 110
[6] = tested on: Staphylococcus aureus Methicillin/Gentamicin/Tetracycline Resistant (ATCC 33592); conditions: for Minimum Inhibitory Concentration Staphylococcus aureus ME/GM/TC resistant: in vitro MIC, tested at 100, 30, 10, 3, 1, 0.3 and 0.1 μM in 1% DMSO
[7] = tested on: Plague CO92; conditions: in vitro MIC; listed as 24
[8] = in vitro; conditions: mouse, microsomes, pH 7.4
[9] = tested on: F. tularensis SCHU-S4; conditions: in vitro MIC
[10] = in vitro; conditions: monkey, microsomes, pH 7.4
[11] = tested on: Bacillus anthracis Ames; conditions: in vitro MIC; listed as 24
[12] = tested on: B. melitensis 16M; conditions: in vitro MIC
[13] = tested on: Bacillus subtillis (ATCC 43223); conditions: ATCC 43223
[14] = tested on: red blood cells; test: Hemolytic studies; conditions: for % hemolysis / Hemolytic activity: concentration not given
[15] = tested on: Salmonella typhimurium (ATCC 13311); conditions: for MIC Salmonella typhimurium: ATCC 13311
[16] = Metabolic stability, monkey liver microsomes
[17] = Metabolic stability, rat liver microsomes
[18] = Metabolic stability, dog liver microsomes
[19] = Metabolic stability, human liver microsomes; conditions: for % remaining at time T, Human Liver: 0.5 mg/mL microsomes
[20] = Metabolic stability, mouse liver microsomes
[21] = tested on: Plasmodium falciparum W2 (CDC Indochina III chloroquine, quinine, pyrimethamine and sulfadoxine-resistant)
[22] = tested on: Plasmodium falciparum D6 (CDC Sierra Leone, mefloquine resistant)
[23] = Minimal Inhibitory Concentration, tested at 100-0.1 in 1% DMSO
[24] = liver microsomes, 1 μM, T = 60 min

CC(C)C[C@H](NC(=O)[C@@H](N)CCCCN)C(=O)N1Cc2ccccc2CC1C(=O)N1C(C(=O)N[C@@H](CCCCN)C(=O)N2Cc3ccccc3CC2C(=O)N2C(C(=O)N[C@@H](Cc3ccccc3)C(=O)N3Cc4ccccc4CC3C(=O)N3C(C(=O)N[C@@H](CCCCN)C(=O)N4Cc5ccccc5CC4C(=O)N4C(C(=O)N[C@@H](Cc5ccccc5)C(=O)N5Cc6ccccc6CC5C(=O)N5C(C(=O)N[C@@H](CCCCN)C(=O)N6Cc7ccccc7CC6C(=O)N6C(C(=O)N[C@@H](CCCCN)C(=O)N[C@@H](CCCNC(=N)N)C(N)=O)CC7CCCCC76)CC6CCCCC65)CC5CCCCC54)CC4CCCCC43)CC3CCCCC32)CC2CCCCC21 (stereo partly drawn) [FKAB-1F, NH2-KL-Tic-Oic-K-Tic-Oic-F-Tic-Oic-K-Tic-Oic-F-Tic-Oic-K-Tic-Oic-KR-CONH2] (H-KL[ξTic][ξOic]K[ξTic][ξOic]F[ξTic][ξOic]K[ξTic][ξOic]F[ξTic][ξOic]K[ξTic][ξOic]KR-NH2)
% hemolysis 100/25 μM (first value) [1]: 63%
remaining at 0.25 h, 1 μM [2]: 113%
remaining at 0.5 h, 1 μM [2]: 120%
remaining at 0.25 h, 1 μM [3]: 99%
remaining at 0.5 h, 1 μM [4]: 27%
remaining at 1 h, 1 μM [4]: 8%
MIC Mycobacterium ranae [5]: 30.00 µM (≈ 92.5 µg/mL)
Minimum Inhibitory Concentration Mycobacterium ranae [5]: 30 µM
MIC Staphylococcus aureus ME/GM/TC resistant [6, 23]: 10.00 µM (≈ 30.8 µg/mL)
Minimum Inhibitory Concentration Staphylococcus aureus ME/GM/TC resistant [6]: 10 µM
Minimum Inhibitory Concentration Plague CO92 [7]: >500 µg/mL
remaining at 0.5 h, 1 μM [8]: 45%
remaining at 1 h, 1 μM [8]: 22%
Minimum Inhibitory Concentration F. tularensis SCHU-S4 [9]: >500 µg/mL
remaining at 0.25 h, 1 μM [10]: 28%
remaining at 0.5 h, 1 μM [10]: 29%
remaining at 1 h, 1 μM [10]: 9%
Minimum Inhibitory Concentration Bacillus anthracis Ames [11]: 0.98 µg/mL
Minimum Inhibitory Concentration B. melitensis 16M [12]: >500 µg/mL
MIC Bacillus Subtillis [13]: 1.00 µM (≈ 3.08 µg/mL)

CC(=O)NCC(=O)N[C@@H](Cc1ccccc1)C(=O)N1Cc2ccccc2CC1C(=O)N1C(C(=O)NCC(=O)N[C@@H](CCCCN)C(=O)N2Cc3ccccc3CC2C(=O)N2C(C(=O)NCC(=O)N[C@@H](Cc3ccccc3)C(=O)N3Cc4ccccc4CC3C(=O)N3C(C(=O)NCC(=O)N[C@@H](CCCCN)C(=O)N4Cc5ccccc5CC4C(=O)N[C@@H](CCCCN)C(=O)N[C@@H](CCCCN)C(=O)N[C@@H](CCCCN)C(=O)N[C@@H](CCCCN)C(N)=O)CC4CCCCC43)CC3CCCCC32)CC2CCCCC21 (stereo partly drawn) [FKAB-1G, Ac-GF-Tic-Oic-GK-Tic-Oic-GF-Tic-Oic-GK-Tic-KKKK-CONH2] (Ac-GF[ξTic][ξOic]GK[ξTic][ξOic]GF[ξTic][ξOic]GK[ξTic]KKKK-NH2)
% hemolysis 100/25 μM (first value) [1]: 14%
remaining at 0.25 h, 1 μM [2]: 71%
remaining at 0.5 h, 1 μM [2]: 79%
remaining at 1 h, 1 μM [2]: 90%
remaining at 0.5 h, 1 μM [4]: 50%
remaining at 1 h, 1 μM [4]: 63%
MIC Mycobacterium ranae [5]: 10.00 µM (≈ 24.4 µg/mL)
MIC Staphylococcus aureus ME/GM/TC resistant [6, 23]: 3.00 µM (≈ 7.32 µg/mL)
Minimum Inhibitory Concentration Staphylococcus aureus ME/GM/TC resistant [6]: 3 µM
remaining at 0.25 h, 1 μM [8]: 80%
remaining at 0.5 h, 1 μM [8]: 10%
remaining at 1 h, 1 μM [8]: 12%
% hemolysis / Hemolytic activity [14]: 14%
% hemolysis / Hemolytic activity ([14]; listed as 25): 14%
remaining at 0.25 h, 1 μM [10]: 55%
remaining at 0.5 h, 1 μM [10]: 73%
remaining at 1 h, 1 μM [10]: 91%
MIC Bacillus Subtillis [13]: 1.00 µM (≈ 2.44 µg/mL)
MIC Salmonella typhimurium [15]: 10 µM (≈ 24.4 µg/mL)

CC(=O)NCCCC(=O)N[C@@H](Cc1ccccc1)C(=O)N1Cc2ccccc2CC1C(=O)N1C(C(=O)NCCCC(=O)N[C@@H](CCCCN)C(=O)N2Cc3ccccc3CC2C(=O)N2C(C(=O)NCCCC(=O)N[C@@H](Cc3ccccc3)C(=O)N3Cc4ccccc4CC3C(=O)N3C(C(=O)NCCCC(=O)N[C@@H](CCCCN)C(=O)N4Cc5ccccc5CC4C(=O)N[C@@H](CCCCN)C(=O)N[C@@H](CCCCN)C(=O)N[C@@H](CCCCN)C(=O)N[C@@H](CCCCN)C(N)=O)CC4CCCCC43)CC3CCCCC32)CC2CCCCC21 (stereo partly drawn) [FKAB-1Gd, Ac-Gaba-F-Tic-Oic-Gaba-K-Tic-Oic-Gaba-F-Tic-Oic-Gaba-K-Tic-KKKK-CONH2] (Ac-[GABA]F[ξTic][ξOic][GABA]K[ξTic][ξOic][GABA]F[ξTic][ξOic][GABA]K[ξTic]KKKK-NH2)
metabolic stability T = 60 min monkey [16, 24]: high
remaining at 0.25 h, 1 μM ([16]; monkey, microsomes, pH 7.4): 16%
remaining at 0.5 h, 1 μM ([16]; monkey, microsomes, pH 7.4): 25%
remaining at 1 h, 1 μM ([16]; monkey, microsomes, pH 7.4): 76%
MIC Mycobacterium ranae [5]: 10.00 µM (≈ 25.5 µg/mL)
Minimum Inhibitory Concentration Mycobacterium ranae [5]: 10 µM
MIC Staphylococcus aureus ME/GM/TC resistant ([6]; ATCC 33592): 100.00 µM (≈ 255 µg/mL)
metabolic stability T = 60 min rat [17, 24]: high
remaining at 0.25 h, 1 μM ([17]; rat, microsomes, pH 7.4): 67%
remaining at 0.5 h, 1 μM ([17]; rat, microsomes, pH 7.4): 78%
remaining at 1 h, 1 μM ([17]; rat, microsomes, pH 7.4): 83%
% remaining, Dog Liver T = 15 ([18]; T = 15 min, 1 μM, 0.5 mg/mL microsomes): 35%
remaining at 0.5 h, 1 μM ([18]; dog, microsomes, pH 7.4): 34%
remaining at 1 h, 1 μM ([18]; dog, microsomes, pH 7.4): 55%
metabolic stability T = 60 min dog [18, 24]: High
% hemolysis 100/25 μM (first value) ([14]; 100 μM): 10.8%/
remaining at 0.25 h, 1 μM ([19]; human, microsomes, pH 7.4): 106%
metabolic stability T = 60 min human [19, 24]: high
% remaining at time T, Human Liver ([19]; second human column (T = 30 min, head not given), 1 μM): 94%
% remaining at time T, Human Liver ([19]; third human column (T = 60 min, head not given), 1 μM): 114%
MIC Bacillus Subtillis [13]: 1.00 µM (≈ 2.55 µg/mL)
MIC Salmonella typhimurium [15]: 10 µM (≈ 25.5 µg/mL)
metabolic stability T = 60 min mouse [20, 24]: very low
remaining at 0.25 h, 1 μM ([20]; mouse, microsomes, pH 7.4): 90%
remaining at 0.5 h, 1 μM ([20]; mouse, microsomes, pH 7.4): 7%
remaining at 1 h, 1 μM ([20]; mouse, microsomes, pH 7.4): 9%

CC(C)C[C@H](NC(=O)CNC(=O)[C@H](CCCCN)NC(=O)CN)C(=O)N1Cc2ccccc2CC1C(=O)N1C(C(=O)NCC(=O)N[C@@H](CCCCN)C(=O)N2Cc3ccccc3CC2C(=O)N2C(C(=O)NCC(=O)N[C@@H](Cc3ccccc3)C(=O)N3Cc4ccccc4CC3C(=O)N3C(C(=O)NCC(=O)N[C@@H](CCCCN)C(=O)N4Cc5ccccc5CC4C(=O)N4C(C(=O)NCC(=O)N[C@@H](Cc5ccccc5)C(=O)N5Cc6ccccc6CC5C(=O)N5C(C(=O)NCC(=O)N[C@@H](CCCCN)C(=O)N6Cc7ccccc7CC6C(=O)N6C(C(=O)NCC(=O)N[C@@H](CCCCN)C(=O)N[C@@H](CCCNC(=N)N)C(N)=O)CC7CCCCC76)CC6CCCCC65)CC5CCCCC54)CC4CCCCC43)CC3CCCCC32)CC2CCCCC21 (stereo partly drawn) [WRFK-1, NH2-GKGL-Tic-Oic-GK-Tic-Oic-GF-Tic-Oic-GK-Tic-Oic-GF-Tic-Oic-GK-Tic-Oic-GKR-CONH2] (H-GKGL[ξTic][ξOic]GK[ξTic][ξOic]GF[ξTic][ξOic]GK[ξTic][ξOic]GF[ξTic][ξOic]GK[ξTic][ξOic]GKR-NH2)
MIC Staphylococcus aureus ME/GM/TC resistant [6, 23]: 10.00 µM (≈ 35.4 µg/mL)
Minimum Inhibitory Concentration Staphylococcus aureus ME/GM/TC resistant [6]: 10 µM
IC50 * W2 [21]: 5.7 µg/mL (≈ 1.61 µM)
IC50 * D6 [22]: 7.3 µg/mL (≈ 2.06 µM)

CC(C)C[C@H](NC(=O)CNC(=O)[C@@H]1C[C@@H]2CCCC[C@@H]2N1C(=O)[C@@H]1Cc2ccccc2CN1C(=O)[C@H](CC(C)C)NC(=O)CNC(=O)[C@@H]1C[C@@H]2CCCC[C@@H]2N1C(=O)[C@@H]1Cc2ccccc2CN1C(=O)[C@H](CCCCN)NC(=O)CNC(=O)[C@@H]1C[C@@H]2CCCC[C@@H]2N1C(=O)[C@@H]1Cc2ccccc2CN1C(=O)[C@H](CC(C)C)NC(=O)CNC(=O)[C@@H]1C[C@@H]2CCCC[C@@H]2N1C(=O)[C@@H]1Cc2ccccc2CN1C(=O)[C@H](CCCCN)NC(=O)CNC(=O)[C@@H]1C[C@@H]2CCCC[C@@H]2N1C(=O)[C@@H]1Cc2ccccc2CN1C(=O)[C@H](CC(C)C)NC(=O)CNC(=O)[C@@H]1C[C@@H]2CCCC[C@@H]2N1C(=O)[C@@H]1Cc2ccccc2CN1C(=O)[C@H](CC(C)C)NC(=O)CNC(=O)[C@H](CCCCN)NC(=O)CN)C(=O)N[C@@H](CCCNC(=N)N)C(N)=O [WRFK-3, NH2-GKGL-Tic-Oic-GL-Tic-Oic-GK-Tic-Oic-GL-Tic-Oic-GK-Tic-Oic-GL-Tic-Oic-GLR-CONH2] (H-GKGL[Tic][Oic]GL[Tic][Oic]GK[Tic][Oic]GL[Tic][Oic]GK[Tic][Oic]GL[Tic][Oic]GLR-NH2)
% hemolysis 100/25 μM (first value) [1]: 100%
p(MIC) Staphylococcus aureus ME/GM/TC resistant ([6]; -log(MIC)): 4.00
MIC Staphylococcus aureus ME/GM/TC resistant [6, 23]: 100.00 µM (≈ 344 µg/mL)
Minimum Inhibitory Concentration Staphylococcus aureus ME/GM/TC resistant [6]: 100 µM
Actual Bioactivity ([6]; p(MIC) used in Staphylococcus aureus QSAR model): 4.000
IC50 * W2 [21]: 7.2 µg/mL (≈ 2.09 µM)
IC50 * D6 [22]: 5.2 µg/mL (≈ 1.51 µM)
Minimum Inhibitory Concentration Salmonella typhimurium ([15]; in vitro MIC, tested at 100, 30, 10, 3, 1, 0.3 and 0.1 μM in 1% DMSO): not active
